From patent US10934309B2, “Tricyclic quinone derivative” (Boston Biomedical, Inc., priority 2014, dated 2021)

Experiments:
Assay type in all cases: cell-based, human
HCT-116 cells [1] = assay: Proliferation inhibition assay of cancer cells (Test Example 1), HCT-116; details: Homo sapiens, HCT-116, 96 h, read-out: IC50 (μM) HCT, concentration for 50% inhibition of cell proliferation (Bulk IC50 value)
Procedure: (§1) HCT-116 cells (derived from human colon adenocarcinoma), HT-29 cells (derived from human colon cancer), and FaDu cells (derived from human hypopharynx cancer) were obtained from American Type Culture Collection (ATCC). […] After cells were seeded at 300-600 cells/well onto black μClear-plate 384 well (Greiner bio-one Cat. No. 781091), a test substance was added such that the final concentration of DMSO is 0.1%, and cultured for 4 days. […] A test shown in Test example 1 was carried out for compounds obtained in the Examples.

FaDu cells [2] = assay: Proliferation inhibition assay of cancer cells (Test Example 1), FaDu; details: Homo sapiens, FaDu, 96 h, read-out: IC50 (μM) FaDu, concentration for 50% inhibition of cell proliferation (Bulk IC50 value)
Procedure: as §1

HT-29 cells [3] = assay: Proliferation inhibition assay of cancer cells (Test Example 1), HT-29; details: read-out: IC50 (μM) HT, concentration for 50% inhibition of cell proliferation (Bulk IC50 value)
Procedure: as §1

HCT-116 cells [4] = assay: Inhibition assay of cancer cell sphere-forming ability (Test Example 2), HCT-116; details: Homo sapiens, HCT-116, 96 h, read-out: IC50 (μM) HCT, concentration for 50% inhibition of cell proliferation (Sphere IC50 value)
Procedure: (§2) HCT-116 cells (derived from human colon adenocarcinoma), HT-29 cells (derived from human colon cancer), FaDu cells (derived from human hypopharynx cancer) were obtained from American Type Culture Collection (ATCC). […] HCT-116 cells, HT-29 cells, and FaDu cells were seeded onto 384 Well Black Clear Bottom Ultra-Low Attachment Microplate (Corning Cat. […] A test substance was added so that the final concentration of DMSO is 0.1%, and then cultured for 4 days. […] A test shown in Test example 2 was carried out for compounds obtained in the Examples.

FaDu cells [5] = assay: Inhibition assay of cancer cell sphere-forming ability (Test Example 2), FaDu; details: Homo sapiens, FaDu, 96 h, read-out: IC50 (μM) FaDu, concentration for 50% inhibition of cell proliferation (Sphere IC50 value)
Procedure: as §2

HT-29 cells [6] = assay: Inhibition assay of cancer cell sphere-forming ability (Test Example 2), HT-29; details: read-out: IC50 (μM) HT, concentration for 50% inhibition of cell proliferation (Sphere IC50 value)
Procedure: as §2

[7] = HCT-116 cells, cultured for 4 days, Cell Titer-Glo
[8] = FaDu cells, cultured for 4 days, Cell Titer-Glo
[9] = Homo sapiens, HT-29, 96 h, HT-29 cells, cultured for 4 days, Cell Titer-Glo
[10] = HCT-116 cells, Ultra-Low Attachment plate, serum-free DMEM/F12 with B27, EGF, bFGF, insulin, 4 days, Cell Titer-Glo
[11] = FaDu cells, Ultra-Low Attachment plate, serum-free DMEM/F12 with B27, EGF, bFGF, insulin, 4 days, Cell Titer-Glo
[12] = Homo sapiens, HT-29, 96 h, HT-29 cells, Ultra-Low Attachment plate, serum-free DMEM/F12 with B27, EGF, bFGF, insulin, 4 days, Cell Titer-Glo

| SMILES | IC50 (HCT-116 cells [1]; [7]) [µM] | IC50 (FaDu cells [2]; [8]) [µM] | IC50 (HT-29 cells [3]; [9]) [µM] | IC50 (HCT-116 cells [4]; [10]) [µM] | IC50 (FaDu cells [5]; [11]) [µM] | IC50 (HT-29 cells [6]; [12]) [µM] | IC50 (HT-29 cells [3]; HT-29 cells, cultured for 4 days, Cell Titer-Glo) [µM] | IC50 (HT-29 cells [6]; HT-29 cells, Ultra-Low Attachment plate, serum-free DMEM/F12 with B27, EGF, bFGF, insulin, 4 days, Cell Titer-Glo) [µM] | IC50 (HCT-116 cells [1]) [µM] | IC50 (FaDu cells [2]) [µM] | IC50 (HT-29 cells [3]; Homo sapiens, HT-29, 96 h) [µM] | IC50 (HCT-116 cells [4]) [µM] | IC50 (FaDu cells [5]) [µM] | IC50 (HT-29 cells [6]; Homo sapiens, HT-29, 96 h) [µM] |
| --- | --- | --- | --- | --- | --- | --- | --- | --- | --- | --- | --- | --- | --- | --- |
| CC(C)(C)OC(=O)NCc1cc2c(s1)C(=O)c1ncccc1C2=O [Example 41, tert-butyl (4,9-dioxo-4,9-dihydrothieno[3,2-g]quinolin-2-yl)methylcarbamate] | 0.7 | 0.78 | 4.52 | 0.83 | 0.46 | 3.82 | – | – | – | – | – | – | – | – |
| COC(C)c1cc2c(s1)C(=O)c1ncccc1C2=O (stereo not drawn) [Example 38, 2-(1-methoxyethyl)thieno[3,2-g]quinoline-4,9-dione] | 0.55 | 0.44 | 0.66 | 0.55 | 0.28 | 0.59 | – | – | – | – | – | – | – | – |
| CCN(Cc1ccncc1)Cc1cc2c(s1)C(=O)c1cccnc1C2=O [Example 7, 2-{[ethyl(pyridin-4-ylmethyl)amino]methyl}thieno[2,3-g]quinoline-4,9-dione] | 0.4 | 0.4 | – | 0.51 | 0.36 | – | 2.64 | 3.04 | – | – | – | – | – | – |
| CN(C)C(=O)c1cc2c(s1)C(=O)c1cccnc1C2=O [Example 3, N,N-dimethyl-4,9-dioxo-4,9-dihydrothieno[2,3-g]quinoline-2-carboxamide] | 0.06 | 0.07 | 0.56 | 0.05 | 0.05 | 0.43 | – | – | – | – | – | – | – | – |
| CC(=O)c1oc2c(c1C(=O)N1CCOCC1)C(=O)c1cnccc1C2=O [Example 47, 2-acetyl-3-(morpholin-4-carbonyl)furo[2,3-g]isoquinoline-4,9-dione] | 0.36 | 0.05 | 0.41 | 0.26 | 0.05 | 0.17 | – | – | – | – | – | – | – | – |
| CC(=O)c1cc2c(o1)C(=O)c1cnccc1C2=O [Example 48, 2-acetylfuro[3,2-g]isoquinoline-4,9-dione] | 0.07 | 0.06 | 0.62 | 0.07 | 0.05 | 0.55 | – | – | – | – | – | – | – | – |
| O=C1c2ccncc2C(=O)c2sc(CNCC(F)F)cc21 [Example 35, 2-{[(2,2-Difluoroethyl)amino]methyl}thieno[3,2-g]isoquinoline-4,9-dione] | – | – | – | – | – | – | – | – | 0.08 | 0.05 | 0.6 | 0.27 | 0.04 | 0.39 |
| CC(O)c1cc2c(o1)C(=O)c1cccnc1C2=O (stereo not drawn) [Example 43, 2-(1-hydroxyethyl)furo[2,3-g]quinoline-4,9-dione] | 0.62 | 0.66 | 5.62 | 0.51 | 0.33 | 0.6 | – | – | – | – | – | – | – | – |
| CC(C)(O)c1cc2c(o1)C(=O)c1sccc1C2=O [Example 54, 2-(2-hydroxypropan-2-yl)thieno[3,2-f][1]benzofuran-4,8-dione] | 0.61 | 0.67 | 2.47 | 0.6 | 0.59 | 0.77 | – | – | – | – | – | – | – | – |
| CCN(Cc1cc2c(s1)C(=O)c1cccnc1C2=O)C1CCCCC1 [Example 5, 2-{[cyclohexyl(ethyl)amino]methyl}thieno[2,3-g]quinoline-4,9-dione] | 0.45 | 0.54 | 0.92 | 0.39 | 0.5 | 0.57 | – | – | – | – | – | – | – | – |
| O=C1c2cc(CN3CCOCC3)sc2C(=O)c2cccnc21 [Example 4, 2-(morpholin-4-ylmethyl)thieno[2,3-g]quinoline-4,9-dione] | 0.57 | 0.46 | 0.68 | 0.55 | 0.34 | 0.63 | – | – | – | – | – | – | – | – |

Second part, led by results:

| IC50 (HCT-116 cells [1]; [7]) [µM] | IC50 (FaDu cells [2]; [8]) [µM] | IC50 (HT-29 cells [3]; [9]) [µM] | IC50 (HCT-116 cells [4]; [10]) [µM] | IC50 (FaDu cells [5]; [11]) [µM] | IC50 (HT-29 cells [6]; [12]) [µM] | IC50 (HT-29 cells [3]; HT-29 cells, cultured for 4 days, Cell Titer-Glo) [µM] | IC50 (HT-29 cells [6]; HT-29 cells, Ultra-Low Attachment plate, serum-free DMEM/F12 with B27, EGF, bFGF, insulin, 4 days, Cell Titer-Glo) [µM] | SMILES | IC50 (HCT-116 cells [1]) [µM] | IC50 (FaDu cells [2]) [µM] | IC50 (HT-29 cells [3]; Homo sapiens, HT-29, 96 h) [µM] | IC50 (HCT-116 cells [4]) [µM] | IC50 (FaDu cells [5]) [µM] | IC50 (HT-29 cells [6]; Homo sapiens, HT-29, 96 h) [µM] |
| --- | --- | --- | --- | --- | --- | --- | --- | --- | --- | --- | --- | --- | --- | --- |
| 0.06 | 0.03 | 0.51 | 0.06 | 0.04 | 0.08 | – | – | CC(=O)c1cc2c(o1)C(=O)c1ccncc1C2=O [Example 44, 2-acetylfuro[2,3-g]isoquinoline-4,9-dione] | – | – | – | – | – | – |
| 0.07 | 0.04 | 0.64 | 0.24 | 0.04 | 0.5 | – | – | COc1c2ccncc2c(OC)c2sc(C(C)O)cc12 (stereo not drawn) [Example 34, 1-(4,9-dimethoxythieno[3,2-g]isoquinolin-2-yl)ethanol] | – | – | – | – | – | – |
| 0.49 | 0.45 | 3.85 | 0.46 | 0.28 | 0.71 | – | – | CCOC(=O)N(CC)Cc1cc2c(o1)C(=O)c1cccnc1C2=O [Example 11, ethyl [(4,9-dioxo-4,9-dihydrofuro[2,3-g]quinolin-2-yl)methyl]ethylcarbamate] | – | – | – | – | – | – |
| 0.69 | 0.46 | 0.96 | 0.8 | 0.06 | < 0.01 | – | – | CCN(Cc1cc2c(s1)C(=O)c1ccncc1C2=O)C1CCCCC1 [Example 25, 2-{[Cyclohexyl(ethyl)amino]methyl}thieno[2,3-g]isoquinoline-4,9-dione] | – | – | – | – | – | – |
| 0.5 | 0.5 | 6.14 | 0.38 | 0.09 | 0.53 | – | – | CCN(Cc1cc2c(o1)C(=O)c1cccnc1C2=O)S(=O)(=O)CC(C)C [Example 10, N-[(4,9-dioxo-4,9-dihydrofuro[2,3-g]quinolin-2-yl)methyl]-N-ethyl-2-methylpropane-1-sulfonamide] | – | – | – | – | – | – |
| 0.1 | 0.03 | 0.58 | 0.31 | 0.04 | 0.48 | – | – | CC(c1cc2c(s1)C(=O)c1ccncc1C2=O)N1CCOCC1 (stereo not drawn) [Example 23, 2-[1-(morpholin-4-yl)ethyl]thieno[2,3-g]isoquinoline-4,9-dione] | – | – | – | – | – | – |
| 0.39 | 0.41 | 0.93 | 0.2 | 0.33 | 0.63 | – | – | CCN(CCOC)Cc1cc2c(s1)C(=O)c1cccnc1C2=O [Example 6, 2-{[ethyl(2-methoxyethyl)amino]methyl}thieno[2,3-g]quinoline-4,9-dione] | – | – | – | – | – | – |
| 0.41 | 0.84 | 0.87 | 0.55 | 0.05 | 0.54 | – | – | CCOC(c1cc2c(s1)C(=O)c1ccncc1C2=O)C1CC1 (stereo not drawn) [Example 17, 2-[cyclopropyl(ethoxy)methyl]thieno[2,3-g]isoquinoline-4,9-dione] | – | – | – | – | – | – |
| 0.06 | 0.03 | 0.48 | 0.09 | 0.02 | 0.09 | – | – | O=C1c2cnccc2C(=O)c2sc(CO)cc21 [Example 14, 2-(1-hydroxymethyl)thieno[2,3-g]isoquinoline-4,9-dione] | – | – | – | – | – | – |
